# Several values for one entry are separate records, joined by “and”; a condition that tells them apart may be missing. Identical values can stand only once.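 Briefly, cells in 96-well plates were exposed to five compound concentrations for 48 h, and endpoints were estimated by linear interpolation. GI50 = concentration required for 50% inhibition of growth. Definition used: TGI = concentration required for complete inhibition of growth.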
# Tests used:
# Experiment in all cases: DTP human tumour cell line panel, 48 h
# RXF 393 renal = system: RXF 393 renal
# SF-268 CNS = system: SF-268 CNS
# UO-31 renal = system: UO-31 renal
# LOX IMVI melanoma = system: LOX IMVI melanoma
# MDA-MB-231 breast = system: MDA-MB-231 breast
# SK-OV-3 ovarian = system: SK-OV-3 ovarian
# IGROV1 ovarian = system: IGROV1 ovarian
# BT-549 breast = system: BT-549 breast
# PC-3 prostate = system: PC-3 prostate
# UACC-257 melanoma = system: UACC-257 melanoma
Structure (SMILES),GI50 (RXF 393 renal),TGI (RXF 393 renal),GI50 (SF-268 CNS),TGI (SF-268 CNS) [µM],GI50 (UO-31 renal) [µM],TGI (UO-31 renal) [µM],GI50 (LOX IMVI melanoma) [µM],GI50 (MDA-MB-231 breast) [µM],TGI (MDA-MB-231 breast) [µM],GI50 (SK-OV-3 ovarian) [µM],TGI (SK-OV-3 ovarian),GI50 (IGROV1 ovarian) [µM],TGI (IGROV1 ovarian) [µM],GI50 (BT-549 breast) [µM],TGI (BT-549 breast) [µM],GI50 (PC-3 prostate) [µM],TGI (PC-3 prostate) [µM],GI50 (UACC-257 melanoma) [µM],TGI (UACC-257 melanoma) [µM],TGI (LOX IMVI melanoma) [µM]
C#CC1(O)C(COP(=O)(O)OCC2OC(n3cc(F)c(=O)[nH]c3=O)CC2O)OC(n2ccc(N)nc2=O)C1O (centres undefined),< 0.0387 µM,1.48 µM,< 0.01 µM,5.81,< 0.01,> 100,< 0.01,< 0.0133,0.315,> 100,> 100 µM,0.0398,> 100,< 0.019,2.52,< 0.0305,> 69,0.114,> 23.1,–
CCN(CC)CCN1c2nc3ccccc3cc2Sc2cc3ccccc3nc21,3.78 µM,18 µM,3.34 µM,13,0.97,5.09,1.57,1.58,4.03,3.5,12.9 µM,0.473,2.48,2.83,12.2,1.71,4.84,2.04,4.06,3.03
C=C1C(=O)O[C@H]2[C@H]1CC/C(COC(=O)/C=C\C(=O)NCc1ccc(Cn3c(=O)sn(CCI)c3=O)cc1)=C\CC[C@@]1(C)O[C@@H]21,1.81 µM,3.69 µM,10.1 µM,23.6,2.56,8.47,2.18,2.52,6.68,17.4,31.2 µM,3.17,11.9,10.7,22.6,7.37,21.5,2.07,5.97,4.88
CCC(=O)N1C/C(=C/c2ccc(Br)cc2)C(=O)/C(=C/c2ccc(Br)cc2)C1,0.22 µM,0.522 µM,0.902 µM,3.06,0.607,1.5,< 0.0333,0.76,2.36,1.73,5.98 µM,0.766,2.27,0.653,1.39,0.632,2.29,1.63,3.47,0.248
CCCCCCCCCCNCCSS(=O)(=O)O,2.21 µM,3.91 µM,1.22 µM,2.52,3.3,12.9,1.69,1.77,3.69,2.6,7.58 µM,4.82,17.6,6.15,21.8,1.98,4.07,7.88,22.4,3.26
C#C[C@@]1(O)[C@@H](CO)O[C@@H](n2cc(C(F)(F)F)c3c(N)ncnc32)[C@@H]1O,0.841 µM,2.74 µM,1.55 µM,> 22.9,0.311,3.16,0.288,0.736,> 100,0.214,> 100 µM,0.103,> 100,0.962,4.69,0.427,> 21.1,0.6,–,2.98
O=C1Cc2cc(CCn3cncn3)c(Cl)cc2N1,7.48 µM,> 100 µM,59.6 µM,> 100,> 100,> 100,> 100,4.66,> 100,36.5,> 100 µM,> 100,> 100,8.72,> 100,> 100,> 100,7.14,> 100,> 100
Oc1ccc(C(O)(c2ccccc2)c2ccccc2)c2ccccc12,–,> 100 µM,–,9.63,–,11.6,–,–,5.27,–,14.1 µM,–,5.62,–,26.1,–,14.2,–,23.7,2.62
NC(Cc1c[nH]c2ccc([N+](=O)[O-])cc12)C(=O)O (centres undefined),–,> 100 µM,–,> 100,–,> 100,–,–,> 100,–,> 100 µM,–,> 100,–,> 100,–,> 100,–,> 100,> 100
Cc1ccc(-c2nc(-c3nccc4ccccc34)oc2-c2ccccc2)cc1,–,> 100 µM,–,> 100,–,> 100,–,–,> 100,–,> 100 µM,–,> 100,–,> 100,–,> 100,–,> 100,48.2
COC1C=COC2(C)Oc3c(C)c(O)c4c(O)c(c(C5SCCS5)c(O)c4c3C2=O)NC(=O)/C(C)=C\C=CC(C)C(O)C(C)C(O)C(C)C(OC(C)=O)C1C (centres undefined),–,24.1 µM,–,32,–,26.7,–,–,18.9,–,27.7 µM,–,22.4,–,16.2,–,20,–,17.8,4.57
N#Cc1nc(C#N)c(Sc2ccccc2)c(Sc2ccccc2)c1Sc1ccccc1,0.98 µM,3.22 µM,0.331 µM,1.03,0.415,1.08,0.17,0.296,0.773,3.27,9.01 µM,0.732,2.3,0.21,4.27,0.753,21.5,1.37,2.94,0.344
Cn1cc(C2=C(c3cn(CCCN)c4ccccc34)C(=O)NC2=O)c2ccccc21,3.4 µM,7.42 µM,5.33 µM,12.8,5.41,> 18.8,3.4,6.49,16.7,5.58,> 25 µM,8.95,> 19.7,5.07,11.5,7.63,24.6,4.9,9.05,7.49
Cc1nc2sc3c(N)ncnc3c2c(C)c1C,> 25 µM,> 25 µM,> 25 µM,> 25,> 25,> 25,> 25,> 25,> 25,> 25,> 25 µM,> 25,> 25,> 25,> 25,> 25,> 25,> 25,> 25,> 25
Cn1c(=O)c(Oc2ccc(F)cc2F)cc2cnc(N[C@@H]3CCOC3)nc21,> 25 µM,> 25 µM,> 25 µM,> 25,> 11,> 16.2,> 25,> 25,> 25,> 25,> 25 µM,> 25,> 25,> 25,> 25,> 25,> 25,> 25,> 25,> 25
O=C1NC2(CCCCC2)C(=O)N1CCN(CCCl)CCCl,> 25 µM and 99.2 µM,> 25 µM and 202 µM,> 25 µM and 112 µM,> 250,> 25,> 250,> 25,–,> 25,> 25,> 25 µM and 250 µM,17.7,–,–,> 25,–,> 25,> 25,> 250,> 250
COS(C)(=O)=O,–,> 2 µM,–,> 2,–,> 2,–,–,> 2,–,> 2 µM,–,> 2,–,> 2,–,> 2,–,> 2,> 2
Fc1ccc(-c2nn3ccccc3c2-c2ccncc2)cc1,> 25 µM,> 25 µM,> 25 µM,> 25,8.26,> 25,> 25,> 25,> 25,> 25,> 25 µM,12.9,> 25,> 25,> 25,> 25,> 25,> 25,> 25,> 25
c1ccc(Oc2ccc(Nc3ncc(-c4ccccc4)o3)cc2)cc1,> 25 µM,> 25 µM,> 25 µM,> 25,> 25,> 25,> 25,> 25,> 25,> 25,> 25 µM,> 25,> 25,> 25,> 25,> 25,> 25,> 25,> 25,> 25
COc1ccc2c(c1)CCc1cc(OC)ccc1/[N+]([O-])=[N+]\2[O-],–,12.2 µM,–,32.9,–,25.9,–,–,37,–,35.6 µM,–,35,–,29.8,–,31.6,–,35,42.7
Nc1ncc(-c2ccc3ncnc(N4CCc5ccc(Cl)cc54)c3c2)cc1C(F)(F)F,0.181 µM,0.864 µM,1.13 µM,24.7,0.254,4.62,0.734,1.29,12.4,1.3,7.04 µM,0.188,0.964,1.82,17.2,0.84,16,2.86,20.9,11.9

# Reference: PubChem BioAssay (NCI)
